Experimental data: ChEMBL document CHEMBL1136340, “Indole-2-carboxamides as novel NR2B selective NMDA receptor antagonists” (Bioorg Med Chem Lett, 2003)

What was measured:
[1] = biological target: Glutamate NMDA receptor; GRIN1/GRIN2B (Homo sapiens, UniProt Q05586+Q13224); assay: Inhibition of N-methyl-D-aspartate glutamate receptor-evoked increase of intracellular Ca+ in cells expressing NMDA glutamate receptor 1/2B; assay type: functional, cell-based
[2] = biological target: Glutamate [NMDA] receptor; assay: Inhibition of [3H]Ro-256981 binding to N-methyl-D-aspartate glutamate receptor; assay type: protein-complex assay

Chain of Glutamate NMDA receptor; GRIN1/GRIN2B (Q13224 whole entry, other chains not shown): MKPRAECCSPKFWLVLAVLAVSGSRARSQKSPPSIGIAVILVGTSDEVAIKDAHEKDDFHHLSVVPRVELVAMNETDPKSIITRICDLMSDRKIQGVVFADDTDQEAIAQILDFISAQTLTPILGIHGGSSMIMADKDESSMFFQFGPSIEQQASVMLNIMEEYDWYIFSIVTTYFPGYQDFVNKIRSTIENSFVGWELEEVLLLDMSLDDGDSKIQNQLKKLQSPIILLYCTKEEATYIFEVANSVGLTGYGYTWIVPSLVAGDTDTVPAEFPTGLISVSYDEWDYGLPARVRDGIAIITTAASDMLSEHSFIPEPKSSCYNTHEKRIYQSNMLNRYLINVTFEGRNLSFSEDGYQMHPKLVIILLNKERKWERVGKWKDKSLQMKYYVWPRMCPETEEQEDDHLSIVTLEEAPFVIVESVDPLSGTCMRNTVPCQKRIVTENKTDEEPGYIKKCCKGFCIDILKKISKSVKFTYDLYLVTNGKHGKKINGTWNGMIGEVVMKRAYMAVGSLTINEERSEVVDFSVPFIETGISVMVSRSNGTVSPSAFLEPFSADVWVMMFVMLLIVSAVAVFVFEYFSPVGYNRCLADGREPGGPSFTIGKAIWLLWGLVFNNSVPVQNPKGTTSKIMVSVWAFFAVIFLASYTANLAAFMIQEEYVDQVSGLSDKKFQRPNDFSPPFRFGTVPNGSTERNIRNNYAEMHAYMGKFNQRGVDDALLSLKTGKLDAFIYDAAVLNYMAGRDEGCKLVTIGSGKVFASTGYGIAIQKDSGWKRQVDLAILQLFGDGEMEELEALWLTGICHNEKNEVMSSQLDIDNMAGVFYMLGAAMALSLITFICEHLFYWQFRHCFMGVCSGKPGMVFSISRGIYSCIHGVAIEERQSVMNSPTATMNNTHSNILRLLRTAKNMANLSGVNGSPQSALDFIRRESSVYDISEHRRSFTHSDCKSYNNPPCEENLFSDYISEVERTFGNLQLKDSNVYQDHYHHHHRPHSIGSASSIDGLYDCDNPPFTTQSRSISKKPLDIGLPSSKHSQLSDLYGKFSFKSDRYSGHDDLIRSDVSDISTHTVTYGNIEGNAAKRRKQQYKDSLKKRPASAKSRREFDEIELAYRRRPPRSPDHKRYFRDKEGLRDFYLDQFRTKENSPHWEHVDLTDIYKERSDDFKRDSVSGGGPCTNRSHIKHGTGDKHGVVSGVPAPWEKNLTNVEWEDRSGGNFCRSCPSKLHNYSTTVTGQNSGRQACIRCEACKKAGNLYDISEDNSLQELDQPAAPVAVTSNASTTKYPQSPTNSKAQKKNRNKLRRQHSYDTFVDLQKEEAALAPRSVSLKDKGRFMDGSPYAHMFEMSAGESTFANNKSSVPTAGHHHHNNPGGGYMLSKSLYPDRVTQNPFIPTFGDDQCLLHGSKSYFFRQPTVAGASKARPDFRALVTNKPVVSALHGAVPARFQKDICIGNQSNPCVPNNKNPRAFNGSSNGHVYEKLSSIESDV

| SMILES | IC50 [1] [nM] | IC50 [2] [nM] |
| --- | --- | --- |
| O=C(/C=C/c1ccc(O)cc1)N1CCC(Cc2ccccc2)CC1 | 104 | 196 |
| O=C(c1cc2cccc(O)c2[nH]1)N1CCC(Cc2ccccc2)CC1 | 77 | 380 |
| O=C(c1cc2cc(O)cc(O)c2[nH]1)N1CCC(Cc2ccccc2)CC1 | 52 | 106 |
| O=C(c1cc2c(O)cccc2[nH]1)N1CCC(Cc2ccccc2)CC1 | 39 | 18 |
| O=C(c1cc2cc(O)ccc2[nH]1)N1CCC(Cc2ccccc2)CC1 | 40 | 31 |
| O=C(c1cc2c(O)cc(O)cc2[nH]1)N1CCC(Cc2ccccc2)CC1 | 10 | 6 |
| C[C@@H](CN1CCC(Cc2ccccc2)CC1)[C@@H](O)c1ccc(O)cc1 | 57 | 6 |
| O=C(c1cc2ccc(O)cc2[nH]1)N1CCC(Cc2ccccc2)CC1 | 20 | 12 |
| O=C(c1cc2ccc(O)cc2[nH]1)N1CCC(c2ccccc2)CC1 | > 8000 |  |
| O=C(c1cc2ccc(O)cc2[nH]1)N1CCC(CCc2ccccc2)CC1 | 24 | 359 |
| O=C(c1cc2ccc(O)cc2[nH]1)N1CCC(OCc2ccccc2)CC1 | 46 | 47 |
| O=c1[nH]c2ccc([S+]([O-])CCN3CCC(Cc4ccc(F)cc4)CC3)cc2o1 (stereo not drawn) [BESONPRODIL] | 8 | 4 |
